Data taken from patent publication US4070484A, “Antiallergic composition containing aromatic carboxylic amide derivatives and method of using the same” (Kissei Pharmaceutical Co., Ltd., priority 1973, dated 1978).
Entries after “also recorded” stand apart in the source; their conditions may differ. Where two headings read alike, the source gives them in different places.

Tests used:
[1] = Acute Toxicity (LD50) in mice; format: in vivo; conditions: mouse, in vivo, po, mortality on the 8th day
Experimental: (§1) The median lethal dose (LD50) of the new aromatic carboxylic acid amide derivatives of this invention were determined in dd-stain male and female mice (6 weeks old) by oral administration and in Wistar strain male and female rats (7 weeks old) by oral and intraperitoneal administration. Each animal selected for the experiment was maintained in an air conditioned room at a temperature of 22° ± 1° C and a relative humidity of 55 ± 5% during the full course of the experiment. All animals were fed compressed pellets (CE-2 type produced by Japan CLEA Co.) and water was available ad libitum by bottle. Five groups of ten animals for each administration route were used.
(§2) Since these compounds were isoluble in water, they were suspended in a 0.5% aqueous solution of carboxymethylcellulose at each dosage level. The administrative volume of each agent to 10 g body weight mouse was 0.2 ml for oral administration, while that to 100g body weight of rat was 0.5 ml for intraperitoneal and oral administrations.
(§3) The LD50 values were calculated from the mortality on the 8th day by the Litchfield-Wilcoxon's method.

dd-stain mice = test: Acute Toxicity (LD50) in mice; format: in vivo; conditions: oral, mortality on the 8th day, 11520 min
Experimental: as §1, §2, §3

[2] = test system: experimental asthma in rats; test: Experimental Asthma in Rats; format: in vivo, rat; conditions: for minimal effective dose: Rattus norvegicus, oral, 2 hours before antigen injection
Experimental: Twenty normal male rats weighing 120-150 g were divided into four groups each consisting of five rats. All of the rats were sensitized passively by means of intravenous injection of rat reaginic antibody. After a lapse of 22 hours of sensitization, 5 milliliters of a 1% aqueous solution of NaHCO3 containing (3',4'-dimethoxycinnamoylamino)-benzoic acid* in a dose of 0 mg/kg (control), 5 mg/kg, 10 mg/kg and 20 mg/kg were orally administered to the rats in each group, and then canulation was begun on both the trachea and the common carotid artery on the rats. The rate and volume of respiration and systemic blood pressure were recorded simultaneously on a polygraph.
After 2 hours of administration, the challenge symptoms were subjected, by means of injection of the antigen, and the results are shown in the drawing attached herewith.

[3] = test system: adult patients having asthma bronchiale; test: Clinical trial for adults; format: in vivo, human; conditions: oral
Source text: A clinical trial was made by administering 2-(3',[…]-dimethoxycinnamoylamino)-benzoic acid orally to adult patients having asthma bronchiale. These patients having asthma bronchiale were chosen from those suffering from atopic and mixed forms. Determination of the effect were integrally judged from the extent of subjective symptoms (the number of asthma attacks, the degree of dyspnea, wheeze, the number of cough attacks and sputum expectoration), objective findings (dry rale) and pulmonary function test.
(§4) The effect was evaluated by five grades of "remarkable improvement", "moderate improvement", "slight improvement", "unchanged", and "aggravated". A daily dose (400-600 mg) of the active compound in the powdery preparation obtained in Example 12 was administered orally to patients in equal portions four times daily, ie, after every meal and before sleeping.

[4] = test system: homologous passive cutaneous anaphylaxis (antigen-antibody reaction); test: Homologous Passive Cutaneous Anaphylaxis in Rats; format: in vivo, rat (Wistar male); conditions: Rattus norvegicus, po; 200 mg/kg orally 2 hours prior to the injection of antigen
Experimental: Wistar male rats weighing 120-150 g were used in this experiment. […]. Normal rats were sensitized passively with dilution of the antibody by means of intradermal injection. After 48 hours of the sensitization, the mixture of antigen (EA) and evens blue was injected intravenously. The animals were killed by a blow on the head 30 minutes after the injection, and then the blue spot resulted from the antigen-antibody reaction was measured photometrically.
A given test compound dissolved in 1 % NaHCO3 solution was administrated in a dose of 200 mg/kg orally 2 hours prior to the injection of antigen, while only the vehicle solution was administered to the control group.
The efficacy of the test compounds to inhibit the homologous passive cutaneous anaphlaxis was compared with the value (%) calculated using the following formula: [formula] wherein A stands for the amount of leaked dye in control group and B for the amount of leaked dye in the group administered with a given test compound.

[5] = Acute Toxicity (LD50) in rats; format: in vivo; conditions: rat, in vivo, mortality on the 8th day
Experimental: as §1, §2, §3

Wistar strain rats = test: Acute Toxicity (LD50) in rats; format: in vivo; conditions: mortality on the 8th day, 11520 min
Experimental: as §1, §2, §3

[6] = test system: sensitized mesenteric mast cells; test: Effect on the Disruption of the Sensitized Mast Cells; format: cell-based, rat; conditions: 10^-5 g/ml, 5 minutes prior to the treatment of antigen
Experimental: Mesenteric mast cells isolated from normal rats were sensitized passively by means of incubation with rat reaginic antibody at 37° C. After termination of the incubation, the specific antigen (DNP-Ascaris) was added to the incubation medium, then these mast cells in mesentery were fixed with formalin and stained with 0.1 % toluidine blue (in acetic acid buffer; pH: 4.6). The number of mast cells disrupted as a consequence of the antigen-antibody reaction were counted under a microscope. The number of the mast cells disrupted were also counted without the addition of the specific antigen.
A given test compound dissolved in 1 % NaHCO3 solution was added to the incubation medium at a concentration of 10^-5 g/ml, 5 minutes prior to the treatment of antigen, while only the vehicle was added to the control group.
The efficacy of the test compounds to inhibit the mast cell disruption was compared with the value (%) calculated using the following formula: [formula] wherein P stands for the percentage of disrupted mast cells in the control group, Q for the percentage of mast cells disrupted spontaneously and R for the percentage of disrupted mast cells in the group treated with a given test compound.

[7] = test system: child patients having asthma bronchiale; test: Clinical trial for children; format: in vivo, human; conditions: oral
Source text: A clinical trial was made by orally administering Compound No. 33 to child patients having asthma bronchiale. Child patients having asthma bronchiale in atopic and mixed forms were chosen for the clinical trial. Determination of the effect was integrally judged from the extent of subjective symptoms (the number of asthma attacks, the degree of dyspnea, wheeze, the number of cough attacks and sputum expectoration), objective findings (dry rale) and pulmonary function test.
as §4, with “"unchanged"and” for “"unchanged", and”, “(100-200” for “(400-600”, “a day, i.e.,” for “daily, ie,”

[8] = test system: antiallergic action, oral administration to mammalia; conditions: known art; cited from earlier work
mast cells = conditions: known art, cited from earlier work

COc1ccc(C=CC(=O)Nc2ccccc2C(=O)O)cc1OC [Compound No. 33, N-(3',4'-dimethoxycinnamoyl)-anthranilic acid]
LD50 at 192 h [1]: 705 mg/kg
LD50 (dd-stain mice): 500 mg/kg
minimal effective dose ([2]; read-out: dose showing inhibition of decrease in the rate of respiration): ≥ 5 mg/kg
minimal effective dose ([2]; read-out: dose showing inhibition of decrease in the volume of respiration): ≥ 10 mg/kg
Asthmatic symptoms resulting from the challenge ([2]; oral 5, 10, 20 mg/kg): observed in the control group only
effect on depression of blood pressure just after the challenge ([2]; oral 5, 10, 20 mg/kg, just after the challenge): no inhibiting effect
effect on subsequent depression of blood pressure ([2]; oral 5, 10, 20 mg/kg, subsequent depression): showed an inhibiting effect on subsequent depression
Evaluation ([3]; 400mg × 14 days): slight imp.
Side effect ([3]; 400mg × 14 days): none
Evaluation ([3]; 400mg × 21 days): mod. impr.
Side effect ([3]; 400mg × 21 days): none
Side effect ([3]; 600mg × 14 days): none
Evaluation ([3]; 600mg × 14 days, row): slight imp; also recorded: mod. impr
Evaluation ([3]; 600mg × 20 days): unchanged
Side effect ([3]; 600mg × 20 days): none
Evaluation ([3]; 600mg × 21 days): unchanged
Side effect ([3]; 600mg × 21 days): none
Evaluation ([3]; 600mg × 24 days): mod. impr.
Side effect ([3]; 600mg × 24 days): none
inhibition at 200 mg/kg [4]: 46.1%
LD50 at 192 h ([5]; ip, intraperitoneal): 385 mg/kg
LD50 at 192 h ([5]; po): 1850 mg/kg
LD50 (Wistar strain rats; intraperitoneal): 338 mg/kg
LD50 (Wistar strain rats; oral): 2030 mg/kg
Inhibition percentage (mast cell disruption) [6]: 33%
Evaluation ([7]; 200 mg × 15 days): mod. impr.
Side effect ([7]; 200 mg × 15 days): none
Evaluation ([7]; 200 mg × 29 days): slight impr.
Side effect ([7]; 200 mg × 29 days): none
Evaluation ([7]; 200 mg × 35 days): slight imp.
Side effect ([7]; 200 mg × 35 days): none

O=C(O)c1cc(=O)c2c(OCC(O)COc3cccc4oc(C(=O)O)cc(=O)c34)cccc2o1 [Disodium cromoglycate]
pharmacological effect when administered orally (in words) [8]: loses its pharmacological effect when administered orally
Inhibition percentage (mast cell disruption) [6]: 16%
inhibition of mast cell disruption (in words) (mast cells): inhibitor of mast cell disruption
inhibition of mast cell disruption (in words) (mast cells; listed as disodium cromoglycate): inhibits the disruption of mast cells and release therefrom of chemical mediators
